The results in this text go back to patent publication US6046218A, “Pyridine derivative and medicament containing the same as an effective ingredient” (SS Pharmaceutical Co., Ltd., priority 1996, dated 2000).

Where a name gives a salt, the structure may show the parent alone.

What is called inhibition is the drop in the measured response relative to a control, in per cent.

The test system of this assay is IL-5 production. Briefly: Test 3: inhibition of IL-5 production in human PBMC stimulated with ConA. In kind it is cell-based. The following applies: 10^-6 M, 10 μg/ml ConA, 48 hours, read-out: Inhibition rate of IL-5 production. As for the experimental part: Test 3: Test on the inhibition of IL-5 production
The peripheral blood was collected from a normal volunteer and peripheral blood mononuclear cells (PBMC) of the human peripheral blood were separated therefrom by the specific gravity centrifugation method. They were suspended in an AIM-V medium and their cell count was adjusted. To individual wells of a 96-well incubation plate, 1×10^6 cells/ml of PBMC were poured, followed by the addition of a stimulator (10 μg/ml of ConA) and a medicament. The resulting mixture was incubated in 5% CO2 at 37° C. for 48 hours. After incubation, 50 μl of the supernatant were collected and subjected to measurement by a human IL-5 EIA kit (BIO SOURCE, INC.). The inhibition rate was calculated according to the following formula. [formula]
`COc1cnc(/C=C/C(=O)c2ccco2)cc1OC` [Ex. 62, 4,5-Dimethoxy-2-[3-(2-furyl)-3-oxo-1-propenyl]pyridine]: the inhibition at 1 µM amounted to 72.3%.
The value for `CCOc1cnc(/C=C/C(=O)c2ccccc2)cc1OCCCC(=O)O` [Ex. 104, 4-[5-Ethoxy-2-(3-oxo-3-phenyl-1-propenyl)-4-pyridyloxy]butanoic acid hydrochloride] was 89.3%.
Take `COc1cnc(/C=C/C(=O)N2CCCC2)cc1OC` [Ex. 108, 4,5-Dimethoxy-2-(3-oxo-3-pyrrolidino-1-propenyl)pyridine hydrochloride]: the inhibition at 1 µM is 78.5%.
In the case of `CCCCCC(O)/C=C/c1cc(OC)c(OCCCCC(=O)O)cn1` (stereo not shown) [Ex. 41, 5-[2-(3-Hydroxy-1-octenyl)-4-methoxy-5-pyridyloxy]pentanoic acid hydrochloride], the inhibition at 1 µM was 91%.
The result for `COc1cnc(/C=C/C(O)c2ccccc2)cc1OCCCC(=O)O` (stereo not shown) [Ex. 34, 4-[2-(3-Hydroxy-3-phenyl-1-propenyl)-5-methoxy-4-pyridyloxy]butanoic acid] reads 61%; that for `COc1cnc(/C=C/C(=O)N2CCCCC2)cc1OC` [Ex. 107, 4,5-dimethoxy-2-(3-oxo-3-piperidino-1-propenyl)pyridine hydrochloride], 71.9%.
The result for `COc1cnc(/C=C/C(=O)c2ccccc2OC)cc1O` [Ex. 60, 4-Hydroxy-5-methoxy-2-[3-(2-methoxyphenyl)-3-oxo-1-propenyl]pyridine] reads 91.4%; that for `CCOC(=O)CCCOc1cnc(/C=C/C(=O)c2ccccc2)cc1OC` [Ex. 82, Ethyl 4-[4-methoxy-6-(3-oxo-3-phenyl-1-propenyl)-3-pyridyloxy]butanoate], 69.6%; that for `COC(=O)CCCCCOc1cc(/C=C/C(=O)c2ccccc2)ncc1OC` [Ex. 42, methyl 6-[5-methoxy-2-(3-oxo-3-phenyl-1-propenyl)-4-pyridyloxy]hexanoate], 77.5%.
Consider `COC(=O)CCCCCOc1cc(/C=C/C(O)c2ccccc2)ncc1OC` (stereo not shown) [Ex. 26, Methyl 6-[2-(3-hydroxy-3-phenyl-1-propenyl)-5-methoxy-4-pyridyloxy]hexanoate], for which the inhibition at 1 µM came to 83.7%.
The result for `CCOC(=O)CCCOc1cc(/C=C/C(=O)C2CCCC2)ncc1OC` [Ex. 79, Ethyl 4-[2-(3-cyclopentyl-3-oxo-1-propenyl)-5-methoxy-4-pyridyloxy]butanoate hyd rochloride] reads 64.1%; that for `COc1cnc(/C=C/C(=O)N2CCOCC2)cc1OC` [Ex. 110, 4,5-Dimethoxy-2-(3-morpholino-3-oxo-1-propenyl)pyridine hydrochloride], 79.3%; that for `COc1cnc(/C=C/C(=O)c2ccsc2)cc1OC` [Ex. 64, 4,5-Dimethoxy-2-[3-oxo-3-(3-thienyl)-1-propenyl]pyridine], 82.1%.
The value for `COc1cnc(/C=C/C(=O)c2cc(OC)c(OC)c(OC)c2)cc1OCCCCCCO` [Ex. 102, 6-[5-Methoxy-2-(3-oxo-3-(3,4,5-trimethoxyphenyl)-1-propenyl)-4-pyridyloxy]hexyl alcohol hydrochloride] was 97.3%.
The value for `CCOC(=O)CCCCOc1cc(/C=C/C(=O)c2cc(OC)ccc2OC)ncc1OC` [Ex. 89, Ethyl 5-[5-methoxy-2-(3-(2,5-dimethoxyphenyl)-3-oxo-1-propenyl)-4-pyridyloxy]pentanoate] was 82.1%.
On to `CCOC(=O)CCCOc1cc(/C=C/C(=O)c2ccccc2)ncc1OCC` [Ex. 84, Ethyl 4-[5-ethoxy-2-(3-oxo-3-phenyl-1-propenyl)-4-pyridyloxy]butanoate hydrochloride], for which the inhibition at 1 µM worked out at 89.4%.
The result for `COc1cc(/C=C/C(O)C2CCCC2)ncc1OCCCC(=O)O` (stereo not shown) [Ex. 37, 4-[2-(3-Cyclopentyl-3-hydroxy-1-propenyl)-4-methoxy-5-pyridyloxy]butanoic acid hydrochloride] reads 72.6%; that for `CCOc1cnc(/C=C/C(=O)c2ccccc2)cc1O` [Ex. 55, 5-Ethoxy-4-hydroxy-2-(^3-oxo-3-phenyl-1-propenyl]pyridine], 97.5%.
The value for `CCOC(=O)CCCOc1cc(/C=C/C(=O)C2CCC2)ncc1OC` [Ex. 80, Ethyl 4-[2-(3-cyclobutyl-3-oxo-1-propenyl)-5-methoxy-4-pyridyloxy]butanoatehydrochloride] was 69.2%; that for `COc1ccc(OC)c(C(=O)/C=C/c2cc(O)c(OC)cn2)c1` [Ex. 57, 4-Hydroxy-5-methoxy-2-[3-(2,5-dimethoxyphenyl)-3-oxo-1-propenyl]pyridine] was 82.5%; that for `CCOC(=O)CCCOc1cc(/C=C/C(=O)c2ccccc2OC)ncc1OC` [Ex. 93, Ethyl 4-[5-methoxy-2-(3-(2-methoxyphenyl)-3-oxo-7-propenyl)-4-pyridyloxy]butanoate hydrochloride] was 66%.
The result for `CCCCCC(=O)/C=C/c1cc(OCCCCCC(=O)OCC)c(OCc2ccccc2)cn1` [Ex. 14, Ethyl 6-[5-benzyloxy-2-(3-oxo-1-octenyl)-4-pyridyloxy]hexanoate] reads 90.2%; that for `CCOC(=O)CCCCCOc1cc(/C=C/C(O)c2ccccc2)ncc1OC` (stereo not shown) [Ex. 27, Ethyl 6-[2-(3-hydroxy-3-phenyl-1-propenyl)-5-methoxy-4-pyridyloxy]hexanoate], 89.6%; that for `COc1cnc(/C=C/C(=O)c2ccc(OC)c(OC)c2)cc1O` [Ex. 58, 4-Hydroxy-5-methoxy-2-[3-(3,4-dimethoxyphenyl)-3-oxo-1-propenyl]pyridine hydrochloride], 91.3%.
Turning to `COc1cnc(/C=C/C(=O)c2cc(OC)c(OC)c(OC)c2)cc1O` [Ex. 61, 4-Hydroxy-5-methoxy-2-[3-oxo-3-(3,4,5-trimethoxyphenyl)-1-propenyl]pyridinehydrochloride], the inhibition at 1 µM worked out at 79.4%.
The value for `COc1cnc(/C=C/C(=O)c2cccs2)cc1OC` [Ex. 63, 4,5-Dimethoxy-2-[3-oxo-3-(2-thienyl)-1-propenyl]pyridine] was 81%; that for `COC(=O)CCCOc1cnc(/C=C/C(O)c2ccccc2)cc1OC` (stereo not shown) [Ex. 28, Methyl 4-[2-(3-hydroxy-3-phenyl-1-propenyl)-4-methoxy-5-pyridyloxy]butanoate] was 72.1%; that for `CCOC(=O)COc1cnc(/C=C/C(=O)c2ccccc2)cc1OC` [Ex. 81, Ethyl [4-methoxy-6-(3-oxo-3-phenyl-1-propenyl)-3-pyridyloxy]acetate] was 72.7%.
In the case of `COc1cnc(/C=C/C(=O)c2ccccc2OC)cc1OC` [Ex. 49], the inhibition at 1 µM stood at 65%.
As to `COc1cnc(/C=C/C(=O)c2ccccn2)cc1OC` [Ex. 66, 4,5-dimethoxy-2-[3-oxo-3-(2-pyridyl)-1-propenyl]pyridine], the inhibition at 1 µM stood at 70.1%.
The value for `CCCCCC(O)/C=C/c1cc(OCCCC(=O)O)c(OC)cn1` (stereo not shown) [Ex. 40, 4-[2-(3-Hydroxy-1-octenyl)-5-methoxy-4-pyridyloxy]butanoic acid hydrochloride] was 97.5%; that for `COc1cnc(/C=C/C(=O)N2CCCCC2)cc1OC1CCCC1` [Ex. 111, 4-Cyclopentyloxy-5-methoxy-2-(3-oxo-3-piperidino-1-propenyl)pyridine hydrochloride] was 73.2%.
For the compound `Oc1cnc(/C=C/C(O)c2ccccc2)cc1O` (stereo not shown) [Ex. 25, 4,5-Dihydroxy-2-(3-hydroxy-3-phenyl-1-propenyl)pyridine], the inhibition at 1 µM was 97.5%.
The value for `COC(=O)CCCOc1cnc(/C=C/C(O)C2CCCC2)cc1OC` (stereo not shown) [Ex. 32, Methyl 4-[2-(3-cyclopentyl-3-hydroxy-1-propenyl)-4-methoxy-5-pyridyloxy]butanoate] was 80.7%; that for `COc1cnc(/C=C/C(=O)c2ccncc2)cc1OC` [Ex. 68, 4,5-Dimethoxy-2-[3-oxo-3-(4-pyridyl)-1-propenyl]pyridine] was 95.4%; that for `COc1cnc(/C=C/C(=O)C2CCCCC2)cc1O` [Ex. 75, 2-(3-Cyclohexyl-3-oxo-1-propenyl)-4-hydroxy-5-methoxypyridine hydrochloride] was 90.6%.
The result for `COc1cnc(/C=C/C(=O)c2ccccc2)cc1OCCCCCC(=O)O` [Ex. 103, 6-[5-Methoxy-2-(3-oxo-3-phenyl-1-propenyl)-4-pyridyloxy]hexanoic acid] reads 72.4%; that for `COc1cnc(/C=C/C(=O)N2CCCCCC2)cc1OC` [Ex. 109, 4,5-Dimethoxy-2-[3-(1-azepanyl)-3-oxo-1-propenyl]pyridine hydrochloride], 83.8%.
The value for `COc1ccc(C(=O)/C=C/c2cc(O)c(OC)cn2)c(OC)c1` [Ex. 59, 4-Hydroxy-5-methoxy-2-[3-(2,4-dimethoxyphenyl)-3-oxo-1-propenyl]pyridine] was 78.9%.
Turning to `CCCCCC(O)/C=C/c1cc(OCCCC(=O)O)c(O)cn1` (stereo not shown) [Ex. 39, 4-[5-Hydroxy-2-(3-hydroxy-1-octenyl)-4-pyridyloxy]butanoic acid hydrochloride], the inhibition at 1 µM is 97.6%.
The result for `COc1cnc(/C=C/C(=O)c2cccnc2)cc1OC` [Ex. 67, 4,5-Dimethoxy-2-[3-oxo-3-(3-pyridyl)-1-propenyl]pyridine] reads 77.9%; that for `COC(=O)CCCOc1cc(/C=C/C(O)c2ccccc2)ncc1OC` (stereo not shown) [Ex. 29, Methyl 4-[2-(3-hydroxy-3-phenyl-1-propenyl)-5-methoxy-4-pyridyloxy]butanoate], 99.8%; that for `CCOC(=O)CCCCCOc1cnc(/C=C/C(=O)c2ccccc2)cc1OC` [Ex. 83, Ethyl 6-[4-methoxy-6-(3-oxo-3-phenyl-1-propenyl)-3-pyridyloxy]hexanoate], 96.2%.
